Results: BindingDB's records for doi:10.1021/acs.jmedchem.6b00541 (Vertex Pharmaceuticals, 2016)

Columns and labels:
[1] = Allosteric inhibition of HCV genotype 1b NS5A infected in human l389lucubi- neo/NS3-375.1-containing Huh7ET cells assessed as RNA replication/translation after 4 days in presence of 40% human serum by luciferase reporter gene assay
Nonstructural protein 5A = target: T1, Nonstructural protein 5A (UniProt Q5L478); test: Allosteric inhibition of HCV genotype 1b NS5A infected in human l389lucubi- neo/NS3-375.1-containing Huh7ET cells assessed as RNA replication/translation after 4 days by luciferase reporter gene assay
T1 sequence (Q5L478 whole entry): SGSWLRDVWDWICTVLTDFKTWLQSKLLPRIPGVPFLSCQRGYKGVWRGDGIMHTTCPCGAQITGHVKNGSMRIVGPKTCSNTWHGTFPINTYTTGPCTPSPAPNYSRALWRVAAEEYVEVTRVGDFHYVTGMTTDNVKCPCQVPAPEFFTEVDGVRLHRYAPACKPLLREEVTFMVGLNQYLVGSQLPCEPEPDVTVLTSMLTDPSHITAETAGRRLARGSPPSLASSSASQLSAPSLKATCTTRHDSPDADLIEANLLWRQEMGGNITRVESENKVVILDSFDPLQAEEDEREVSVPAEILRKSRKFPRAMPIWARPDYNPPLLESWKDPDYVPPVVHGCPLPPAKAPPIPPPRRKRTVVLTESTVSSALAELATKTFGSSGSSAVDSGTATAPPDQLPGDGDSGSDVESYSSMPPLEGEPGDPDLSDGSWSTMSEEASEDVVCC

[2] = Allosteric inhibition of HCV genotype 1a NS5A infected in human W11.8 cells assessed as reduction in viral RNA replication after 4 days by ELISA
[3] = Allosteric inhibition of HCV genotype 1b NS5A infected in human l389lucubi- neo/NS3-375.1-containing Huh7ET cells assessed as RNA replication/translation after 4 days by luciferase reporter gene assay

Molecule `CC(C)(C)C#Cc1cc(N(CC(=O)N2CCOCC2)C(=O)[C@H]2CC[C@H](C)CC2)c(C(=O)O)s1` has an EC50 [1] of 340 nM, an EC50 (Nonstructural protein 5A) of 23 nM and an EC50 [2] of 37 nM.

Molecule `CC(C)(C)C#Cc1cc(N(CC(=O)N2CCCC2)C(=O)[C@H]2CC[C@H](C)CC2)c(C(=O)O)s1` has an EC50 [3] of 21 nM and an EC50 [2] of 32 nM.

With `C[C@@H](C(=O)N(C)C)N(c1cc(C#CC(C)(C)C)sc1C(=O)O)C(=O)[C@H]1CC[C@H](C)CC1` the EC50 [3] was 5 nM and the EC50 [2] was 7 nM.

In the case of `CC[C@@H](C(=O)N(C)C)N(c1cc(C#CC(C)(C)C)sc1C(=O)O)C(=O)[C@H]1CC[C@H](C)CC1`, the EC50 [3] is reported as 16 nM and the EC50 [2] is reported as 24 nM.

Molecule `COC1CCN(C(=O)CN(c2cc(C#CC(C)(C)C)sc2C(=O)O)C(=O)[C@H]2CC[C@H](C)CC2)CC1` has an EC50 [3] of 17 nM.

In the case of `CC(C)(C)C#Cc1cc(N(CC(=O)N2CCC(O)CC2)C(=O)[C@H]2CC[C@H](C)CC2)c(C(=O)O)s1`, the EC50 [3] is reported as 64 nM.

In the case of `CCN(CC)C(=O)CN(c1cc(C#CC(C)(C)C)sc1C(=O)O)C(=O)[C@H]1CC[C@H](C)CC1`, the EC50 [3] is reported as 23 nM and the EC50 [2] is reported as 51 nM.

`CN(C)C(=O)CN(c1cc(C#CC(C)(C)C)sc1C(=O)O)C(=O)[C@H]1CC[C@H](C)CC1` gave an EC50 [3] of 12 nM and an EC50 [2] of 35 nM.

Molecule `COC[C@@H](C(=O)N(C)C)N(c1cc(C#CC(C)(C)C)sc1C(=O)O)C(=O)[C@H]1CC[C@H](C)CC1` has an EC50 [3] of 7 nM and an EC50 [2] of 11 nM.

Work on `CCC[C@@H](C(=O)N(C)C)N(c1cc(C#CC(C)(C)C)sc1C(=O)O)C(=O)[C@H]1CC[C@H](C)CC1` yielded an EC50 [3] of 14 nM.

For `C[C@H](C(=O)N(C)C)N(c1cc(C#CC(C)(C)C)sc1C(=O)O)C(=O)[C@H]1CC[C@H](C)CC1`, the EC50 [3] was 109 nM.

Work on `CC(C)(C)C#Cc1cc(N(CC(=O)N2CCCCC2)C(=O)[C@H]2CC[C@H](C)CC2)c(C(=O)O)s1` yielded an EC50 [3] of 67 nM.

`CN(C)C(=O)[C@H](CO)N(c1cc(C#CC(C)(C)C)sc1C(=O)O)C(=O)[C@H]1CC[C@H](C)CC1` gave an EC50 [3] of 60 nM.

Molecule `CNC(=O)CN(c1cc(C#CC(C)(C)C)sc1C(=O)O)C(=O)[C@H]1CC[C@H](C)CC1` has an EC50 [3] of 190 nM.

`CN1CCN(C(=O)CN(c2cc(C#CC(C)(C)C)sc2C(=O)O)C(=O)[C@H]2CC[C@H](C)CC2)CC1` showed an EC50 [3] of 6 nM.

Molecule `CC(C)(C)C#Cc1cc(N(CC(=O)N2CC(O)C2)C(=O)[C@H]2CC[C@H](C)CC2)c(C(=O)O)s1` has an EC50 [3] of 66 nM.

In the case of `CC(C)NC(=O)CN(c1cc(C#CC(C)(C)C)sc1C(=O)O)C(=O)[C@H]1CC[C@H](C)CC1`, the EC50 [3] is reported as 160 nM.

Molecule `CC(C)[C@@H](C(=O)N(C)C)N(c1cc(C#CC(C)(C)C)sc1C(=O)O)C(=O)[C@H]1CC[C@H](C)CC1` has an EC50 [3] of 51 nM.

`CN(C)CCN(C)C(=O)CN(c1cc(C#CC(C)(C)C)sc1C(=O)O)C(=O)[C@H]1CC[C@H](C)CC1` showed an EC50 [3] of 9 nM.

For `CC(C)(C)C#Cc1cc(N(C(=O)[C@H]2CC[C@H](C)CC2)[C@H]2CC[C@H](O)CC2)c(C(=O)O)s1` [Lomibuvir], the EC50 [3] was 7 nM and the EC50 [2] was 53 nM.
